The values that follow come from article PMC7438494 (Communications Biology, 2020).

Where “and” joins values, the source holds several entries; their conditions need not be identical. Identical values can stand only once. Like-named read-outs stand apart in the source and are kept apart here.

Experiment [1] deals with yeast mitochondrial ATP synthase (yeast SMP) (Saccharomyces cerevisiae, UniProt P00854+P61829). Put plainly: biochemical. As to conditions: for ATP hydrolysis activity, Exp 1-3: SMP, lower block, listed as Og-A.
The target of experiment [2] is yeast mitochondrial ATP synthase (Saccharomyces cerevisiae, UniProt P00854+P61829). Put plainly: biochemical. Particulars: for Cyanide sensitive: 60 min.
In the next experiment the target is human ATP synthase (Homo sapiens, UniProt P00846+P05496). Nature of the experiment: biochemical. Type of experiment: biochemical.
Another experiment addresses yeast F1Fo ATP synthase (Saccharomyces cerevisiae, UniProt P00854+P61829). Nature of the experiment: biochemical. Particulars: for ATP hydrolysis activity, Exp 1-3: upper block, head prints SMP, listed as Og-A.
Experiment [3] concerns the target yeast mitochondrial ATP synthase (Saccharomyces cerevisiae, UniProt P61829). Nature of the experiment: Uncoupling of the yeast mitochondrial ATP synthase. It is filed as biochemical. As to conditions: high concentrations.
Where [4] appears, read: Oligomycin-A 0.05 μM, cyanide sensitive, yeast frozen mito.
Setting [5] is: Oligomycin-A 0.6 μM, cyanide sensitive, yeast frozen mito.
Where [6] appears, read: 1 ug/ml Oligomycin, […], frozen human mito.
Setting [7] is: read-out: % activity, cyanide sensitive ATP synthesis.

`CC[C@@H]1/C=C/C=C/C[C@H](C)[C@@H](O)[C@](C)(O)C(=O)[C@H](C)[C@@H](O)[C@H](C)C(=O)[C@H](C)[C@@H](O)[C@H](C)/C=C/C(=O)O[C@H]2[C@@H](C)[C@@H](CC1)O[C@@]1(CC[C@@H](C)[C@@H](C[C@H](C)O)O1)[C@@H]2C` [Oligomycin A]: the “ATP hydrolysis activity, Exp 1-3” value is 0.8851 and 0.8864 and 0.89 in experiment [1] (Og-A 0.0101 uM); 0.8632 and 0.8483 and 0.878 in experiment [1] (Og-A 0.0506 uM); 0.7765 and 0.7817 and 0.7989 in experiment [1] (Og-A 0.2528 uM); 0.6228 and 0.6613 and 0.6108 in experiment [1] (Og-A 0.632 uM); 0.4529 and 0.4416 and 0.4356 in experiment [1] (Og-A 1.2641 uM); 0.1135 and 0.1053 and 0.1112 in experiment [1] (Og-A 6.3205 uM). Besides, the “ATP hydrolysis activity, Exp 1-3” value in experiment [1] (Og-A 15.8012 uM) is 0.0859 and 0.0937 and 0.0705; in experiment [1] (Og-A 31.6024 uM) it was 0.097 and 0.0697 and 0.0822; at yeast F1Fo ATP synthase (Og-A 0.0101128 uM), 0.9127 and 0.9068 and 0.9174; on yeast F1Fo ATP synthase (Og-A 0.0505638 uM) it was 0.7469 and 0.6678 and 0.6555; at yeast F1Fo ATP synthase (Og-A 0.252819 uM) it was 0.4366 and 0.4305 and 0.5; at yeast F1Fo ATP synthase (Og-A 1.26409 uM) it was 0.3568 and 0.3661 and 0.3907. Also, the “ATP hydrolysis activity, Exp 1-3” value was 0.2269 and 0.2038 and 0.2221 at yeast F1Fo ATP synthase (Og-A 6.32047 uM); 0.2056 and 0.2009 and 0.2105 on yeast F1Fo ATP synthase (Og-A 15.8012 uM); 0.2364 and 0.1839 and 0.1796 on yeast F1Fo ATP synthase (Og-A 31.6024 uM). Moreover, the IC50 in experiment [1] (n = 3, read-out: IC50 ± SEM, ATP hydrolysis, yeast SMP) is ~1100 nM and 1100 nM; in experiment [2] (n = 3, read-out: IC50 ± SEM, ATP synthesis, yeast mitochondria), 100 ± 8 nM; against human ATP synthase (IC50 ± SEM, ATP synthesis, human mitoplasts), 5.4 ± 0.6 nM; on yeast F1Fo ATP synthase (F1Fo in bicelles, n = 3, read-out: IC50 ± SEM, ATP hydrolysis, purified yeast F1Fo), 107 ± 1.1 nM; on yeast F1Fo ATP synthase (F1Fo in bicelles, read-out: IC50, ATP hydrolysis, purified yeast F1Fo), about 100 nM. Moreover, the remaining activity at 0.0005 µM in experiment [2] (Oligomycin-A 0.0005 μM, cyanide sensitive, yeast frozen mito) was found to be 110%. Also, the remaining activity at 0.005 µM in experiment [2] (Oligomycin-A 0.005 μM, cyanide sensitive, yeast frozen mito) came out at 101%. Besides, the Cyanide sensitive is 21.2843 nmol/min/mg and 38.526 nmol/min/mg and 37.46 nmol/min/mg in experiment [2] (Oligomycin-A 0.01 μM, yeast frozen mito); 16.4622 nmol/min/mg and 31.3703 nmol/min/mg in experiment [2] (Oligomycin-A 0.05 μM, yeast frozen mito); 15.1607 nmol/min/mg and 21.1456 nmol/min/mg and 29.9684 nmol/min/mg in experiment [2] (Oligomycin-A 0.08 μM, yeast frozen mito); 6.587 nmol/min/mg and 5.248 nmol/min/mg and 9.417 nmol/min/mg in experiment [2] (Oligomycin-A 0.2 μM, yeast frozen mito); 0.8771 nmol/min/mg and 1.272 nmol/min/mg and 1.435 nmol/min/mg in experiment [2] (Oligomycin-A 0.6 μM, yeast frozen mito). In experiment [2] (setting [4]), this molecule displayed an inhibition at 0.05 µM of 16.9%. Further, the remaining activity at 0.05 µM in experiment [2] (setting [4]) came to 83.1%. For the same molecule, in experiment [2] (setting [5]), the inhibition at 0.6 µM is 95.6%. In addition, the remaining activity at 0.6 µM in experiment [2] (setting [5]) is 4.43%. Also, the inhibition at 1 µM in experiment [2] (Oligomycin-A 1 μM, cyanide sensitive, yeast frozen mito, read-out: % inhibition) was 100%; in experiment [2] (read-out: inhibition of cyanide sensitive ATP synthesis, yeast mitochondria) it was 98%. Further, in experiment [2] (Oligomycin-A 2 μM, cyanide sensitive, yeast frozen mito), testing at 2 µM gave an inhibition of 100%. Further, the “extent of inhibition of ATP synthesis of the human enzyme” value at human ATP synthase is “nearly completely”. Moreover, the “% activity” value on human ATP synthase (setting [6]) is 19.1774%. For the same molecule, the “% inhibition” value at human ATP synthase (setting [6]) is given as 80.8226%. Further, the “ATP produced, nmol/min/mg” value at human ATP synthase (setting [6]) was found to be 1.61 nmol/min/mg. The “ATP produced, pmol/min/mg” value at human ATP synthase (setting [6]) was found to be 1614.78 pmol/min/mg. For the same molecule, the activity at 1 µg/mL at human ATP synthase (setting [6]) came out at 19.2%. Also, the inhibition at 1 µg/mL at human ATP synthase (setting [6]) was found to be 80.8%. For the same molecule, the remaining activity at 0.001 µM at human ATP synthase (setting [7]) came to 70.9%. For the same molecule, the remaining activity at 0.007 µM on human ATP synthase (setting [7]) came to 34.6%. Further, the remaining activity at 0.01 µM on human ATP synthase (setting [7]) is 18.4%. Moreover, the inhibition at 1.25 µM at human ATP synthase (read-out: inhibition of cyanide sensitive ATP synthesis, human mitoplasts) was found to be 98%. The “inhibition of ATP hydrolysis by yeast F1Fo (extent)” value on yeast F1Fo ATP synthase (F1Fo in bicelles, maximal) is given as 85%. Also, the concentration giving a half-maximal response (EC50) on yeast F1Fo ATP synthase (reconstituted in bicelles, n = 3, read-out: EC50, inhibition of the ATPase activity of purified yeast ATP synthase) amounted to 107 ± 1.1 nM.
Consider venturicidin, for which the “uncoupling of the yeast mitochondrial ATP synthase” value in experiment [3] was “uncouples”.
